Test results taken from patent US20070293467A1, “Demethyl-Cantharidin Platinum Complex Isomers and Their Use” (priority 2004, published 2007).
Like-named read-outs stand apart in the source and are kept apart here.

Columns and labels:
Format in all cases: cell-based
[1] = tested on: L1210 resistance; experiment: MTT tetrazolium microculture growth inhibition, L1210 resistance; conditions: for resistance / cross-resistance of L1210: L1210 resistance vs L1210; for IC50: L1210 resistance, 72 h exposure, MTT, read-out: Average growth-inhibitory activity (IC50)
Protocol: (§1) DMC platinum complexes, together with controls cisplatin, carboplatin, and oxaliplatin were screened for an in vitro antitumor activity against various tumorous cell lines, using a tetrazolium microculture assay.
(§2) Drugs: Drugs to be tested were dissolved in a complete medium at twice the highest concentration to be used, followed by filtration (0.22 μm) sterilization. A series of log dilutions were made from each drug solution using complete medium. All drug solutions were prepared 10 minutes before addition to cells.
(§3) In vitro drug exposure: For each drug to be tested, trypsinized cells were adjusted to a concentration of 2×10^5 cells/ml in a complete medium, and 0.1 ml of the cell suspension was added to each of 24 wells in a 96-well microculture plate. The plate was then incubated at a standard condition for 24 hours in order to allow the cells to be adhered to the bottom of the well and restart exponential growth. To each well of the control culture and drug/concentration combinations, 0.1 ml of the complete medium and drug solution were added, respectively. Each drug/concentration combination consisting of four replicates while the control culture consisting of 12 replicates. The twelve replicates of a blank control containing 0.2 ml of the complete medium were set aside to account for the background. The cultures were incubated for additional 72 hours. All tests were repeated at least 3 times on different occasions.
(§4) MTT assay: The MTT (tetrazolium) assay was used to determine the growth-inhibitory effects of different drugs. A 5 mg/ml solution of MTT (3-(4,5-dimethylthiazol-2-yl)-2,5-diphenyltetrazolium bromide) was prepared in phosphate buffer saline (pH 7.4), sterilized by filtration (0.22 μm) and stored at −20° C. To each well, 0.02 ml of an MTT solution was added, and the plate was incubated for 4 hours under standard conditions. The medium in each well was then removed, and 0.1 ml of DMSO (dimethylsulfoxide) was added to each well to solubilize the colored dye produced from the metabolic reduction of MTT. The amount of reduced MTT was measured by spectrophotometric means (570 nm).
(§5) Data analysis: A mean value of OD was determined for all of the 12 control wells. For each concentration of each drug, A mean OD of the 4 wells was determined. All the mean ODs were subtracted from the blank to account for the background. The “Percent of Control” values were determined and plotted.

[2] = tested on: colorectal cancer cell line Colo320; experiment: MTT tetrazolium microculture growth inhibition, Colo320; conditions: for IC50: Colo320, 72 h exposure, MTT, read-out: Average growth-inhibitory activity (IC50); for activity against colorectal cancer cell line Colo320: in words, from Table 5
Protocol: as §1, §2, §3, §4, §5

[3] = tested on: L1210; experiment: MTT tetrazolium microculture growth inhibition, L1210; conditions: 72 h exposure, read-out: Average growth-inhibitory activity (IC50)
Protocol: as §1, §2, §3, §4, §5

[4] = tested on: Huh-7; experiment: MTT tetrazolium microculture growth inhibition, Huh-7; conditions: for IC50: Huh-7, 72 h exposure, MTT, read-out: Average growth-inhibitory activity (IC50); for in vitro antitumor activity against Huh-7 cell: in words, from Table 5
Protocol: as §1, §2, §3, §4, §5

[5] = tested on: HCT-116; experiment: MTT tetrazolium microculture growth inhibition, HCT-116; conditions: 72 h exposure, read-out: Average growth-inhibitory activity (IC50)
Protocol: as §1, §2, §3, §4, §5

[6] = tested on: Huh-7 resistance; experiment: MTT tetrazolium microculture growth inhibition, Huh-7 resistance; conditions: for cross-resistance of Huh-7: Huh-7 resistance vs Huh-7, within experimental errors; for IC50: Huh-7 resistance, 72 h exposure, MTT, read-out: Average growth-inhibitory activity (IC50); for resistance of Huh-7 to the drug: Huh-7 resistance vs Huh-7, from IC50 of Table 5
Protocol: as §1, §2, §3, §4, §5

[7] = tested on: SK-Hep resistance; experiment: MTT tetrazolium microculture growth inhibition, SK-Hep resistance; conditions: for IC50: SK-Hep resistance, 72 h exposure, MTT, read-out: Average growth-inhibitory activity (IC50); for resistance of SK-Hep to the drug: SK-Hep resistance vs SK-Hep, from IC50 of Table 5
Protocol: as §1, §2, §3, §4, §5

[8] = tested on: SK-Hep; experiment: MTT tetrazolium microculture growth inhibition, SK-Hep; conditions: for IC50: SK-Hep, 72 h exposure, MTT, read-out: Average growth-inhibitory activity (IC50); for in vitro antitumor activity against SK-Hep: in words, from Table 5
Protocol: as §1, §2, §3, §4, §5

[9] = tested on: liver cancer cell line PLC/5; experiment: MTT tetrazolium microculture growth inhibition, PLC/5; conditions: for IC50: PLC/5, 72 h exposure, MTT, read-out: Average growth-inhibitory activity (IC50); for activity against liver cancer cell line PLC/5: in words, from Table 5
Protocol: as §1, §2, §3, §4, §5

[10] = tested on: HT-29; experiment: MTT tetrazolium microculture growth inhibition, HT-29; conditions: 72 h exposure, read-out: Average growth-inhibitory activity (IC50)
Protocol: as §1, §2, §3, §4, §5

O=C1[O][Pt]2([NH][C@@H]3CCCC[C@H]3[NH]2)[O]C(=O)C2C3CCC(O3)C12 (mixture of isomers) [Trans-DMC platinum complex, Trans-Racemic DMC Platinum Complex]
resistance / cross-resistance of L1210 [1]: no cross-resistance | IC50 [1]: 0.17 ± 0.05 µM | IC50 [2]: 2.54 ± 0.95 µM | activity against colorectal cancer cell line Colo320 [2]: more effective | IC50 [3]: 0.14 ± 0.06 µM | IC50 [4]: 4.47 ± 0.79 µM | in vitro antitumor activity against Huh-7 cell [4]: effective in vitro antitumor activities | IC50 [5]: 0.81 ± 0.29 µM | cross-resistance of Huh-7 [6]: no cross-resistance | IC50 [6]: 5.99 ± 0.52 µM | IC50 [7]: 5.01 ± 0.68 µM | IC50 [8]: 4.27 ± 1.03 µM | in vitro antitumor activity against SK-Hep [8]: effective in vitro antitumor activities | IC50 [9]: 4.64 ± 1.01 µM | activity against liver cancer cell line PLC/5 [9]: effective activities | IC50 [10]: 2.09 ± 0.69 µM

N.N.O=C([O-])C1(C(=O)[O-])CCC1.[Pt+2] [Carboplatin, reference compound]
resistance / cross-resistance of L1210 [1]: high resistance | IC50 [1]: 126 ± 17.2 µM | IC50 [2]: 41.7 ± 5.44 µM | IC50 [3]: 12.8 ± 2.14 µM | IC50 [4]: 117 ± 9.82 µM | IC50 [5]: 69.4 ± 14.7 µM | resistance of Huh-7 to the drug [6]: 1.5 fold | IC50 [6]: 176 ± 54 µM | resistance of SK-Hep to the drug [7]: about 2.7 fold | IC50 [7]: 358 ± 28 µM | IC50 [8]: 134 ± 10.3 µM | IC50 [9]: 80.2 ± 15.8 µM | IC50 [10]: 134 ± 15 µM

O=C1[O][Pt]2([NH][C@H]3CCCC[C@H]3[NH]2)[O]C(=O)C2C3CCC(O3)C12 (stereo partly drawn) [Cis-DMC platinum complex]
IC50 [2]: 5.98 ± 0.97 µM | IC50 [4]: 19 ± 1.46 µM | IC50 [5]: 12.6 ± 1.67 µM | cross-resistance of Huh-7 [6]: no cross-resistance | IC50 [6]: 17.1 ± 0.77 µM | IC50 [7]: 22.7 ± 1.11 µM | IC50 [8]: 19.4 ± 2.23 µM | IC50 [9]: 17.1 ± 1.18 µM

N.N.[Cl][Pt][Cl] [Cisplatin, reference compound]
resistance / cross-resistance of L1210 [1]: high resistance | IC50 [1]: 14 ± 1.49 µM | IC50 [2]: 2.54 ± 0.48 µM | IC50 [3]: 0.82 ± 0.14 µM | IC50 [4]: 11.7 ± 1.21 µM | IC50 [5]: 4.14 ± 0.8 µM | resistance of Huh-7 to the drug [6]: 1.5 fold | IC50 [6]: 25.6 ± 3.5 µM | resistance of SK-Hep to the drug [7]: 4 fold | IC50 [7]: 51.8 ± 7.01 µM | IC50 [8]: 13.5 ± 1.84 µM | IC50 [9]: 6.92 ± 1.46 µM | IC50 [10]: 12.1 ± 2.25 µM

O=C1OC(=O)C2C3CCC(O3)C12 (stereo not shown) [DMC, Demethylcantharidin, reference compound]
IC50 ([1]; Mus musculus): 45.5 ± 3.69 µM | IC50 ([2]; Homo sapiens, COLO 320): 23.9 ± 1.42 µM | IC50 ([3]; Mus musculus): 31.2 ± 1.79 µM | IC50 ([4]; Homo sapiens): 32.9 ± 3.68 µM | IC50 ([5]; Homo sapiens): 23.2 ± 2.06 µM | IC50 ([6]; Homo sapiens): 26.9 ± 3.03 µM | IC50 ([7]; SKHep): 25.5 ± 1.69 µM | IC50 ([8]; SKHep): 19 ± 2.01 µM | IC50 ([9]; PLC5): 25.3 ± 1.98 µM | IC50 ([10]; Homo sapiens): 32.7 ± 2.57 µM

O=C1[O][Pt]2([NH][C@@H]3CCCC[C@H]3[NH]2)[O]C1=O [Oxaliplatin, reference compound]
IC50 [2]: 1 ± 0.31 µM | IC50 [4]: 8.97 ± 4.56 µM | IC50 [8]: 9.09 ± 4.24 µM | IC50 [9]: 6.48 ± 3.19 µM

O=C1[O][Pt]2([NH][C@@H]3CCCC[C@H]3[NH]2)[O]C(=O)C2C3CCC(O3)C12 (stereo partly drawn) [Trans-R,R(−)-DMC platinum complex, Trans-R,R-(−)-DMC platinum complex]
resistance / cross-resistance of L1210 [1]: no cross-resistance | IC50 [1]: 0.99 ± 0.1 µM | IC50 [2]: 2.45 ± 0.83 µM | activity against colorectal cancer cell line Colo320 [2]: more effective | IC50 [3]: 0.76 ± 0.09 µM | IC50 [4]: 3.65 ± 1.1 µM | in vitro antitumor activity against Huh-7 cell [4]: effective in vitro antitumor activities | IC50 [5]: 0.45 ± 0.27 µM | IC50 [6]: 26.9 ± 6.14 µM | IC50 [7]: 4.7 ± 0.95 µM | IC50 [8]: 6.63 ± 2.21 µM | in vitro antitumor activity against SK-Hep [8]: effective in vitro antitumor activities | IC50 [9]: 3.23 ± 1.13 µM | activity against liver cancer cell line PLC/5 [9]: effective activities | IC50 [10]: 0.92 ± 0.57 µM

O=C1[O][Pt]2([NH][C@H]3CCCC[C@@H]3[NH]2)[O]C(=O)C2C3CCC(O3)C12 (stereo partly drawn) [Trans-S,S(+)-DMC platinum complex, Trans-S,S-(+)-DMC platinum complex]
resistance / cross-resistance of L1210 [1]: no cross-resistance | IC50 [1]: 0.12 ± 0.06 µM | IC50 [2]: 4.96 ± 1.32 µM | activity against colorectal cancer cell line Colo320 [2]: more effective | IC50 [3]: 0.11 ± 0.05 µM | IC50 [4]: 8.46 ± 1.51 µM | in vitro antitumor activity against Huh-7 cell [4]: effective in vitro antitumor activities | IC50 [5]: 2.04 ± 0.41 µM | IC50 [6]: 16.2 ± 2.6 µM | IC50 [7]: 8.09 ± 0.89 µM | IC50 [8]: 6.15 ± 1 µM | in vitro antitumor activity against SK-Hep [8]: effective in vitro antitumor activities | IC50 [9]: 6.26 ± 1.87 µM | activity against liver cancer cell line PLC/5 [9]: effective activities | IC50 [10]: 3.07 ± 0.73 µM
